Assay results as given in US6994991B1, “Identification of differentially methylated multiple drug resistance loci” (North Shore - Long Island Jewish Research Institute, priority 1998, dated 2006).
Read-outs that look alike come from different tables or passages of the source.

Tested on: MCF7/AdrR cells
Experiment: MTT viability assay of transfected drug resistant cells exposed to drug
Format: cell-based, human
Details: for IC50: Homo sapiens; for sensitivity of cells expressing WTH3 to drug: MCF7/AdrR cells transfected with pcDNA/WTH3
Source text: Reversion of MDR phenotype by overexpression of WTH3, RAB6 or RAB6C in MCF7/AdrR cells. WTH3, RAB6 and RAB6C cDNAs were inserted into pcDNA1.1/Amp expression vectors (Invitrogen Corp.) and transfected into drug resistant MCF7/AdrR cells (Lipofect Amine Plus™; Life Technologies, Inc., (GIBCO)). Expression of the exogenous WTH3 (pcDNA/WTH3), RAB6 (pcDNA/RAB6) or RAB6C (pcDNA/RAB6C) genes in transfected cells was confirmed by RT-PCR. Control cells were provided by transfection with pcDNA1.1/Amp which contained no insert. Cells were exposed to various concentrations of doxorubicin and viablity was determined after 72 hours by MTT assay. […] Cells expressing RAB6 or RAB6C cDNAs were tested for sensitivity to doxorubicin. […] The drug resistant control cells were 3.2 (P<0.0001) times more resistant to the antitumor drug than pcDNA/RAB6C containing cells and 2.2 (P<0.0001) times more resistant to the antitumor drug than pcDNA/RAB6 containing cells.

Structure (SMILES) | IC50 (MCF7, 72 h, control cells transfected with pcDNA1.1/Amp (no insert), viability after 72 hours by MTT, read-out: Mean IC50± SD) | IC50 (MCF7, 72 h, pcDNA/RAB6C containing cells, viability after 72 hours by MTT, read-out: Mean IC50± SD) | IC50 (MCF7, 72 h, pcDNA/RAB6 containing cells, viability after 72 hours by MTT, read-out: Mean IC50± SD) | IC50 (MCF7, MCF7/AdrR cells carrying endogenously expressed RAB6C, read-out: IC50 for doxorubicin) | sensitivity of cells expressing WTH3 to drug | resistance of control cells relative to pcDNA/RAB6C containing cells (control vs pcDNA/RAB6C cells, P<0.0001) | resistance of control cells relative to pcDNA/RAB6 containing cells (control vs pcDNA/RAB6 cells, P<0.0001) | sensitivity to doxorubicin compared to cells transfected with a control vector (drug resistant cells transfected with a vector which expresses WTH3, RAB6C, or RAB6)
COc1cccc2c1C(=O)c1c(O)c3c(c(O)c1C2=O)C[C@@](O)(C(=O)CO)C[C@@H]3O[C@H]1C[C@H](N)[C@H](O)[C@H](C)O1 [doxorubicin] | 4930 ± 300 nM | 1530 ± 130 nM | 2230 ± 170 nM | 1000 to 2500 nM | increased sensitivity | 3.2 times | 2.2 times | increased sensitivity
CC[C@]1(O)C[C@H]2CN(CCc3c([nH]c4ccccc34)[C@@](C(=O)OC)(c3cc4c(cc3OC)N(C=O)[C@H]3[C@@](O)(C(=O)OC)[C@H](OC(C)=O)[C@]5(CC)C=CCN6CC[C@]43[C@@H]65)C2)C1 [vincristine] |  |  |  |  | increased sensitivity |  |  | 
